Measured values: patent EP3748362A1, “IN VITRO METHOD FOR DETECTING RENAL DISEASE” (Fundacion Instituto De Investigacion Sanitaria Fundacion …, priority 2019, dated 2020)

Assays:
[1] = tested on: renal inflammation in experimental Unilateral Ureteral Obstruction (UUO); test: Renal inflammation in unilateral ureteral obstruction (UUO) in mice; assay type: in vivo, C57BL/6 mice; conditions: obstructed kidneys (UUO), paricalcitol 750 ng/kg/day
Description: All animal procedures were performed according to the guidelines of animal research in the European Community and with prior approval by the Ethics Committee of the Health Research of the IIS-Fundacion Jiménez Díaz. For in vivo studies, mice received a daily intraperitoneal injection of the VDRA Paricalcitol starting 48 hours prior to induction of kidney damage.
At the time of sacrifice, animals were anesthetized with 5 mg/kg xylazine (Rompun, Bayer AG) and 35 mg/kg ketamine (Ketolar, Pfizer) and the kidneys perfused in situ with cold saline before removal. […]
Paraffin-embedded kidney sections (3 µm) were stained using conventional methods. […] For each sample (processed by duplicate in a blinded manner), the average value was obtained from the analysis of 4 fields (20X objective) as density/mm2 or percentage stained area vs total analyzed area. Data are expressed as fold increase over control mice, as mean ± SEM of 8-10 animals per group. […]
Total RNA was isolated from cells and mouse kidney samples with Trizol (Invitrogen). […] The mRNA copy numbers were calculated for each sample by the instrument software using Ct value. Results are expressed in copy numbers, calculated relative to unstimulated cells or control mice, after normalization against 18S.

NF-κB1 = test: Canonical NF-κB1 activation (western blot) in TWEAK-stimulated HK2 cells; assay type: cell-based, Human; conditions: 12 µM paricalcitol for 48 hours, TWEAK 100 ng/ml 15 min, p65 and IκBα phosphorylation
Description: Human kidney proximal tubule epithelial cells (HK2 cell line, ATCC CRL-2190) were grown in RPMI 1640 with 10% fetal bovine serum (FBS), 1% glutamine, 100 U/ml penicillin, 100 µg/ml streptomycin, 5 µg/ml insulin-transferrin-selenite and 36 ng/ml hydrocortisone in 5% CO2 at 37° C. When cells reached 60 to 70% confluence, they were serum-depleted for 24 hours before the experiment.
Cells were stimulated with 100ng/ml recombinant human soluble TWEAK (Millipore) or p-200 µg/ml cresyl-sulfate (Raymond Vanholder and Griet Glorieux, University of Gent, Belgium). Concentrations of TWEAK and p-cresyl-sulfate were based on previously published dose-response experiments (Poveda et al. 2014; Sanz et al. 2008). In some experiments cells were preincubated for 48 hours with the paricalcitol 12 µmol/L (Abbott) prior to stimulation. DMSO, used as a solvent in some cases, had no effect on cell viability or on gene expression levels.
For western blot, cell (25 µg/lane) and kidney (100-150 µg/lane) protein extracts were separated on 6%-12% polyacrylamide-SDS gels under reducing conditions. […] Autoradiographs were scanned using the Gel Doc™ EZ imager and analyzed with the Image Lab 3.0 software (BioRad).

C[C@H](/C=C/[C@H](C)C(C)(C)O)[C@H]1CC[C@H]2/C(=C/C=C3C[C@@H](O)C[C@H](O)C3)CCC[C@]12C [paricalcitol]
inflammatory cell infiltration ([1]; 5 days after UUO): prevented | increased expression of proinflammatory factors, such as CCL2, CCL5, IL6 ([1]; real time PCR): prevented | TWEAK-induced NF-κB1 activation (NF-κB1): did not modulate
